Laboratory results from ChEMBL document CHEMBL1926625, “Identification of benzoxazin-3-one derivatives as novel, potent, and selective nonsteroidal mineralocorticoid receptor antagonists” (J Med Chem, 2011).

How the values were obtained:
Androgen receptor = target: T1, Androgen receptor (Homo sapiens, UniProt P10275); assay: Displacement of [3H]testosterone from AR
T1 sequence (P10275 whole entry): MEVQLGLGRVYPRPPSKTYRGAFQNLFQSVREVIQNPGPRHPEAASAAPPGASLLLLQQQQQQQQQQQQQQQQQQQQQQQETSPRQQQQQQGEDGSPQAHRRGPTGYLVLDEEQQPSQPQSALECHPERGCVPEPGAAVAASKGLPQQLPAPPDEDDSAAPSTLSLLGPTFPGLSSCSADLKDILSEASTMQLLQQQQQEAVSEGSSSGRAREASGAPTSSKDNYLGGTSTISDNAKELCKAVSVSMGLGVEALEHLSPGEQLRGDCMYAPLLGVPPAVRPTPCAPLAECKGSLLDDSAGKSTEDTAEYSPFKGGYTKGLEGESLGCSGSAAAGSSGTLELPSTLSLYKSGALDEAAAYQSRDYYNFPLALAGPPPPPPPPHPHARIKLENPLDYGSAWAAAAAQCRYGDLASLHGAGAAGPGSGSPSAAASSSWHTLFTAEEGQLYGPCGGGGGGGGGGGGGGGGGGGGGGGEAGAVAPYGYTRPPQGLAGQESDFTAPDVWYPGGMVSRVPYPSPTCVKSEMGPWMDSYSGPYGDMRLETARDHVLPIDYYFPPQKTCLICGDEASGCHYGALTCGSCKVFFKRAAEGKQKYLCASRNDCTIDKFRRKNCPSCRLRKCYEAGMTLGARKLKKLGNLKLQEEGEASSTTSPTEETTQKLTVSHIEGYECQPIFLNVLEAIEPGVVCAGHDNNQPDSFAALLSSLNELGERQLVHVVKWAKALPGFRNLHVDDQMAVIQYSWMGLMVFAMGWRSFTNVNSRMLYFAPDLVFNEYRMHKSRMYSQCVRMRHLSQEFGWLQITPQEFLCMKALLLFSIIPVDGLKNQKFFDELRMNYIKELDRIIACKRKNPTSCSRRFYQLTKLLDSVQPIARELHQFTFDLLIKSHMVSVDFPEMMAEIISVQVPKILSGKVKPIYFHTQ

Progesterone receptor = target: T2, Progesterone receptor (Homo sapiens, UniProt P06401); assay: Displacement of [3H]progesterone from PR
T2 sequence (P06401 whole entry): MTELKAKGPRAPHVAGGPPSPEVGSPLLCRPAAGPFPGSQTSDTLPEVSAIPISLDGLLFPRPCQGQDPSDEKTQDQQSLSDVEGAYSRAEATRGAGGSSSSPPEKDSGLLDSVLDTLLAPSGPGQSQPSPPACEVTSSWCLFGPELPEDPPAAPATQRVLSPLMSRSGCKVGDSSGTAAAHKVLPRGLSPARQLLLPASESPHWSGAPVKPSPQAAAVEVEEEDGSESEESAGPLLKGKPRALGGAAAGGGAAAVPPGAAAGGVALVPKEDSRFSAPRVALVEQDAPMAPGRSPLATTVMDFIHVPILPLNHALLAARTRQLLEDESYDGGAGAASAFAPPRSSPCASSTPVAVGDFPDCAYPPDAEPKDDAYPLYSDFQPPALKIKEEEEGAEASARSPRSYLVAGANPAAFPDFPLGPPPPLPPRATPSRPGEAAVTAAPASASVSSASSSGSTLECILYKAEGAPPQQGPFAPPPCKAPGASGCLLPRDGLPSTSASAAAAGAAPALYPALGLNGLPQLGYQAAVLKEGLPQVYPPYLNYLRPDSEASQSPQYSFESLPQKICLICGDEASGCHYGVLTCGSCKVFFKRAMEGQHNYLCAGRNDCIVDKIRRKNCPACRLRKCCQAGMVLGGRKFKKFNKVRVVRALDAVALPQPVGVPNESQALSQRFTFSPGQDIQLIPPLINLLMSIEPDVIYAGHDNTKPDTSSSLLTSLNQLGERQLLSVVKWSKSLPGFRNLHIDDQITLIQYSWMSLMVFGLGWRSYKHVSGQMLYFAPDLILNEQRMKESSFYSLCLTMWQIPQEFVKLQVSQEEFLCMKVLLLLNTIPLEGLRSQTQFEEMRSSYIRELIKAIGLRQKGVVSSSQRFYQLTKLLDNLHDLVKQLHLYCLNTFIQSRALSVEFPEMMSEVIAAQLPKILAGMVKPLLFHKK

[1] = Clearance in Sprague-Dawley rat at 3 mg/kg, iv and 10 mg/kg, po; type: ADME, organism-based; settings: in vivo
[2] = Volume of distribution at steady state in Sprague-Dawley rat at 3 mg/kg, iv and 10 mg/kg, po; type: ADME, organism-based; settings: in vivo, read-out: Vdss
[3] = AUC (0 to 24 hrs) in Sprague-Dawley rat at 10 mg/kg, po; type: ADME, organism-based; set-up: time < 24 hr, dose 10 mg/kg, route oral; settings: plasma
[4] = Mean residence time in Sprague-Dawley rat at 10 mg/kg, po; type: ADME, organism-based; set-up: dose 10 mg/kg, route oral; settings: in vivo
[5] = Bioavailability in Sprague-Dawley rat at 3 mg/kg, iv and 10 mg/kg, po; type: ADME, organism-based; settings: in vivo
[6] = target: T3, Mineralocorticoid receptor (Homo sapiens, UniProt P08235)
T3 sequence (P08235 whole entry): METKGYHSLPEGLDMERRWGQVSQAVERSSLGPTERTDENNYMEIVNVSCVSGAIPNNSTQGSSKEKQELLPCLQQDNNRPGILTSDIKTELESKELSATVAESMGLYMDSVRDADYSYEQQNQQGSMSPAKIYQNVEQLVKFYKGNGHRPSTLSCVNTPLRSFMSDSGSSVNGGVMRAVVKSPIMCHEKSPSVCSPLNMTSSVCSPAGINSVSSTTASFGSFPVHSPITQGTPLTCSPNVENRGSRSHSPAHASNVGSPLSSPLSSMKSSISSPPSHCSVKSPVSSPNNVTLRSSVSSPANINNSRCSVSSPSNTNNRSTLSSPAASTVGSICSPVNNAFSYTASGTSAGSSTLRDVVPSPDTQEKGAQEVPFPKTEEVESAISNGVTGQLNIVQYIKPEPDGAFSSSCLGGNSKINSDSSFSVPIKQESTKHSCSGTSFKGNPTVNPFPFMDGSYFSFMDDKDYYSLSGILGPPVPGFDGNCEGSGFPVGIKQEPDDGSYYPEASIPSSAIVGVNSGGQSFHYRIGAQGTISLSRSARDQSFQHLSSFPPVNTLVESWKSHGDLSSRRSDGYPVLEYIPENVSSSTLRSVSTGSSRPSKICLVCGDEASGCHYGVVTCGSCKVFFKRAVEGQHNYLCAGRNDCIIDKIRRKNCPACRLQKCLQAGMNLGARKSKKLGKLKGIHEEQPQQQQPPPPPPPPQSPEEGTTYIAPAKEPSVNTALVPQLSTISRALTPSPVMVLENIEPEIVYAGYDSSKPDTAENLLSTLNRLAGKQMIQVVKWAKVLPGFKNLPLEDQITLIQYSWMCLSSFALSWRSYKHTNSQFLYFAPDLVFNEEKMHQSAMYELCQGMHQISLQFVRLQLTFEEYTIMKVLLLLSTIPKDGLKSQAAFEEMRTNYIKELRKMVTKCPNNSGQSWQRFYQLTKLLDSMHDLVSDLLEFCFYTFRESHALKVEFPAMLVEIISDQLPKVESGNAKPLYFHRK
Description: Antagonist activity at human MR transfected in human COS1 cells after 1 day by luciferase reporter gene assay

For `Cc1cc(F)ccc1-n1nc(C(F)(F)F)cc1-c1ccc2c(c1)NC(=O)CO2`, the IC50 (Androgen receptor) was > 10 µM, the IC50 (Progesterone receptor) was 1.9 µM and the clearance [1] was 22.1 mL/min/kg. The Vd [2] was 4.63 L/kg, the AUC(0-t) at 24 h [3] was 3830 ng·h/mL and the MRT [4] was 4.39 h. The bioavailability [5] was 50.7% and the IC50 [6] was 0.043 µM.
